# From US20090176786A1, “Benzoylurea Compounds and Use Thereof” (priority 2005, published 2009)
# Legend:
# Format in all cases: in vivo
# [1] = system: Plutella xylostella; assay: Test Example 2: cabbage root immersion (systemic), dead pest rate of Plutella xylostella larvae; conditions: Plutella xylostella, 120 h, root immersion 5 days, 10 second-instar larvae, after 5 days at 24° C.; for pest or weed control at 25 ppm: test concentration 25 ppm
# Protocol: In 0.25 mL of a mixture solution of Sorgen TW-20 (manufactured by Daiichi Industries Pharmaceuticals, Co., Ltd.) and acetone (mixture volume ratio; Sorgen TW-20:acetone=1:19), 2.5 mg of the present compound (1), (2), (3), (4), (7), (10), (11), (12), (16), (18), (19), (20), (21), (22), (25), (30), (36), (37), (41), (42), (52), (54), (56), (57), (60), (62), (105) or (109) was dissolved. The solution was diluted with ion-exchanged water so that the active ingredient concentration became to a predetermined concentration to prepare a pesticidal solution for test of the test compound. The root part of cabbages in the fourth leaf period were washed with tap water to remove soils, and then immersed in the pesticidal solution for test. After 5 days from immersion of the root part, the root part was removed, and the leaves and stems were put in a cup (volume; 180 mL). In the cup 10 second-instar larvae of Plutella xylostella were released, and the cup was stored at 24° C. After 5 days, the number of dead pests was counted, and the dead pest rate was calculated by the following equation:
# (§1) Dead pest rate(%)=(the number of dead pests/the number of tested pests)×100
# The test concentrations of the other present compounds were 25 ppm.
# [2] = system: Frankliniella occidentalis; assay: Test Example 4: spray on cucumber, control value against Frankliniella occidentalis larvae; conditions: 168 h, test concentration 50 ppm, spray 20 ml/cup on cucumber, 30 larvae, seven days after spraying
# Protocol: The obtained preparation was diluted with water so that the active ingredient concentration became to a predetermined concentration to prepare a spray solution for test. […] were planted in polyethylene cups, and were grown until the first true leaf was developed. The spray solution for test prepared above was sprayed at the rate of 20 ml/cup on the cucumber. After the pesticidal solution sprayed onto the cucumber was dried, the first true leaf was cut off and then placed on a filter paper (diameter: 70 mm) containing water in a polyethylene cup (diameter: 110 mm). On the cucumber leaf, 30 larvae of Frankliniella occidentalis were released, and the polyethylene cup was capped. Seven days after spraying, the number of pests surviving on the cucumber leaf was counted, and a control value was calculated by the following equation: Control value(%)={1−(Cb×Tai)/(Cai×Tb)}×100 wherein, each symbol has following meaning: Cb: the number of pests before treatment in a non-treated area Cai: the number of pests at the time of observation in a non-treated area Tb: the number of pests before treatment in a treated-area Tai: the number of pests at the time of observation in a treated-area. […] The test concentrations of the other present compounds were 50 ppm.
# [3] = system: Plutella xylostella; assay: Test Example 1: spray on cabbage, dead pest rate of Plutella xylostella larvae; conditions: 500 ppm spray solution, 20 ml/cup on cabbage, 5 second-instar larvae, after 5 days; for pest or weed control at 500 ppm: Plutella xylostella, 120 h
# Protocol: Ten parts of the present compound (1), (2), (5) to (19), (21) to (34), (36) to (61), (63), (64), (68) to (71), (74), (76) to (78), (82) to (83), (89), (93), (94), (97), (99), (102) to (110), (111), (115), (116) (117) to (120) or (123) to (134); 35 parts of white carbon containing 50 parts of polyoxyethylene alkyl ether sulfate ammonium salt; and 55 parts of water were mixed, and finely ground by a wet grinding method to obtain a 10% flowable agent. The obtained flowable agent was diluted with water so that the active ingredient concentration became to 500 ppm to prepare a spray solution for test.
# Cabbages were planted in polyethylene cups, and grown until the third true leaf or the fourth true leaf was developed. The spray solution for test prepared above was sprayed at a rate of 20 ml/cup on the cabbages.
# After the pesticidal solution sprayed onto the cabbages was dried, 5 second-instar larvae of Plutella xylostella were put on the cabbages. After 5 days, the number of dead Plutella xylostella was examined, and a dead pest rate was calculated by the following equation:
# as §1
# [4] = system: Plutella xylostella; assay: Test Example 9: spray on plants, cut aerial part, dead pest rate of third-instar Plutella xylostella larvae; conditions: 120 h, spray 20 ml/cup, 10 third-instar larvae, after 5 days at 25° C.; for pest or weed control at 200 ppm: test concentration 200 ppm; for pest or weed control at 50 ppm: test concentration 50 ppm; for pest or weed control at 12.5 ppm: test concentration 12.5 ppm
# Protocol: In a mixed solution (0.1 mL) of xylene and N,N-dimethylformamide (mixture volume ratio; xylene:N,N-dimethylformamide=1:1), 30 mg of the present compounds (3), (4), (20), (35), (62), (81), (100), (101) or (112) was dissolved, and further a mixed solution (0.1 mL) of xylene and SORPOL 3005X (manufactured by Toho Chemcials, Co., Ltd.) (mixture volume ratio; xylene:SORPOL 3005X=1:9) was added thereto. The solution was diluted with ion-exchanged water so that the active ingredient became to the predetermined concentration to prepare a pesticidal solution for test of the test compound.
# […] were planted in polyethylene cups, and grown until the third true leaf or the fourth true leaf was developed. The spray solution for test prepared above was sprayed at a rate of 20 ml/cup on the cabbages.
# After the pesticidal solution for test was dried, the aerial part of the cabbage was cut, and put into a polyethylene cup having a volume of 100 ml together with 10 third-instar larvae of Plutella xylostella, and stored at 25° C. After 5 days, the number of dead pests was countered, and the dead pest rate was calculated by the following equation:
# as §1
# Test concentrations of the others were 200 ppm.
# [5] = system: Plutella xylostella; assay: Test Example 6: cabbage root immersion, Plutella xylostella, against comparative compound C; conditions: 100 ppm; root immersion 5 days; 10 second-instar larvae; after 5 days at 24° C.
# Protocol: (§2) In 0.25 mL of a mixed solution of Tween-20 and acetone (mixture volume ratio: Tween-20:acetone=1:19), 2.5 mg of the present compound (93) or comparative compound C was dissolved. The solution was diluted with ion-exchanged water so that the active ingredient concentration became to the predetermined concentration (100 ppm) to prepare a pesticidal solution for test of the test compound. The root part of cabbages in the fourth leaf period was washed with tap water to remove soils, and then immersed in the pesticidal solution for test. After 5 days from immersion of the root part, the root part was removed, and the leaves and stems were put in a polyethylene cup (volume; 180 mL). In the cup 10 second-instar larvae of Plutella xylostella were released, and the cup was stored at 24° C. After 5 days, the number of dead pests was countered, and the dead pest rate was calculated by the following equation:
# as §1
# [6] = system: Spondoptela litura; assay: Test Example 3: treated artificial diet (Insecta LF), dead pest rate of Spondoptela litura larvae; conditions: 2 mL on Insecta LF diet, 5 fourth-instar larvae, after 6 days; for pest or weed control at 500 ppm: 144 h
# Text: Ten parts of the present compound (1) to (5), (7) to (13), (18) to (33), (35) to (49), (52) to (56), (58) to (61), (71), (73) to (77), (79), (80), (82), (83), (93), (94), (95), (96), (97), (100) to (109), (111), (112), (115), (117), (119), (121), or (123) to (133), 35 parts of white carbon containing 50 parts of polyoxyethylene alkyl ether sulfate ammonium salt, and 55 parts of water were mixed, and finely ground by a wet grinding method to obtain a preparation. The obtained preparation was diluted with water so that the active ingredient concentration became to 500 ppm to prepare a pesticidal solution for test. On the bottom of a polyethylene cup having a diameter of 5.5 cm, a filter paper having a diameter of 5.5 cm was placed, on which Insecta LF (Nippon Agriculture Industries, Co., Ltd.) sliced in a thickness of 6 mm and further cut half was laid, and to which 2 mL of the above-described pesticidal solution for test was added. After air-dried, 5 fourth-instar larvae of Spondoptela litura were released in the cup, and the cup was capped. After 6 days, the number of dead pests was counted, and the dead pest rate was calculated by the following equation:
# as §1
# [7] = system: Plutella xylostella; assay: Test Example 7: cabbage root immersion, Plutella xylostella, against comparative compound D; conditions: 25 ppm; root immersion 5 days; 10 second-instar larvae; after 5 days at 24° C.
# Protocol: as §2, with “compound (94)” for “compound (93)”, “compound D” for “compound C”, “concentration (25” for “concentration (100”, “a ice cream” for “a polyethylene”
# as §1
smiles,measurement,setting,value
CN(C(=O)NC(=O)c1c(F)cccc1F)c1ccc(SC(F)(F)C(F)F)cc1F [(2)],pest or weed control at 25 ppm,[1],100%
same,pest or weed control at 50 ppm,[2],100%
same,pest or weed control at 500 ppm,[3],100%
COC(=O)CN(C(=O)c1c(F)cccc1F)C(=O)N(C)c1ccc(SC(F)(F)F)cc1F [(81)],pest or weed control at 50 ppm,[2],100%
same,pest or weed control at 200 ppm,[4],100%
CN(C(=O)N(C(=O)c1c(F)cccc1F)S(=O)(=O)c1ccccc1)c1ccc(SC(F)(F)F)cc1F [(99)],pest or weed control at 500 ppm,[3],100%
CN(C(=O)NC(=O)c1c(F)cccc1F)c1cc(Cl)c(SC(F)(F)C(F)F)c(Cl)c1 [(93)],pest or weed control at 500 ppm,[3],100%
same,dead pest rate,[5],90%
same,pest or weed control at 500 ppm,[6],100%
Cc1c(SC(F)F)ccc(N(C)C(=O)N(C)C(=O)c2c(F)cccc2F)c1C [(112)],pest or weed control at 50 ppm,[4],100%
same,pest or weed control at 500 ppm,[6],100%
CN(C(=O)NC(=O)c1c(F)cccc1F)c1ccc(S(=O)(=O)C(F)(F)F)cc1F [(20)],pest or weed control at 5 ppm,"[1]; test concentration of 5 ppm, read-out: dead pest rate",100%
same,pest or weed control at 12.5 ppm,[4],100%
Cc1c(SC(F)F)ccc(N(C)C(=O)NC(=O)c2c(F)cccc2F)c1C [(111)],pest or weed control at 500 ppm,[3],100%
same,pest or weed control at 500 ppm,[6],100%
CN(C(=O)N(Cc1ccco1)C(=O)c1c(F)cccc1F)c1ccc(SC(F)(F)F)cc1F [(64)],pest or weed control at 500 ppm,[3],100%
C#CCSc1ccc(N(C)C(=O)NC(=O)c2c(F)cccc2F)c(F)c1 [(89)],pest or weed control at 500 ppm,[3],100%
CN(C(=O)N(C(=O)OCc1ccccc1)C(=O)c1c(F)cccc1F)c1ccc(SC(F)(F)F)cc1F [(97)],pest or weed control at 50 ppm,[2],100%
same,pest or weed control at 500 ppm,[3],100%
same,pest or weed control at 500 ppm,[6],100%
C=CCSc1ccc(N(C)C(=O)NC(=O)c2c(F)cccc2F)c(F)c1 [(83)],pest or weed control at 500 ppm,[3],100%
same,pest or weed control at 500 ppm,[6],100%
CN(C(=O)c1c(F)cccc1F)C(=O)N(C)c1cc(F)c(SC(F)(F)F)cc1F [(101)],pest or weed control at 50 ppm,[2],100%
same,pest or weed control at 200 ppm,[4],100%
CN(C(=O)N(CC[S+](C)[O-])C(=O)c1c(F)cccc1F)c1ccc(SC(F)(F)F)cc1F (stereo not shown) [(74)],control value,[3],100%
CON(C(=O)c1c(F)cccc1F)C(=O)N(C)c1ccc(SC(F)(F)F)cc1F [(116)],pest or weed control at 500 ppm,[3],100%
CN(C(=O)N(CC1CCCO1)C(=O)c1c(F)cccc1F)c1ccc(SC(F)(F)F)cc1F (stereo not shown) [(63)],pest or weed control at 500 ppm,[3],100%
CCN(C(=O)NC(=O)c1c(F)cccc1F)c1ccc(SC(F)(F)F)cc1F [(4)],pest or weed control at 25 ppm,[1],100%
same,pest or weed control at 50 ppm,[2],100%
same,pest or weed control at 50 ppm,[4],100%
"O=C(NC(=O)c1c(F)cccc1F)Nc1cc(Cl)c(SC(F)(F)C(F)F)c(Cl)c1 [comparative compound C, reference compound]",dead pest rate,[5],20%
CN(C(=O)NC(=O)c1c(F)cccc1Cl)c1ccc(SC(F)(F)F)cc1F [(3)],pest or weed control at 25 ppm,[1],100%
same,pest or weed control at 12.5 ppm,[4],100%
CN(C(=O)N(CCOc1ccccc1)C(=O)c1c(F)cccc1F)c1ccc(SC(F)(F)F)cc1F [(62)],pest or weed control at 25 ppm,[1],100%
same,pest or weed control at 50 ppm,[2],100%
same,pest or weed control at 200 ppm,[4],100%
Cc1cc(SC(F)F)ccc1N(C)C(=O)NC(=O)c1c(F)cccc1F [(35)],pest or weed control at 50 ppm,[4],100%
CN(C(=O)NC(=O)c1c(F)cccc1F)c1ccc(C(=O)OC(C)(C)C)cc1 [(82)],control value,[3],100%
same,dead pest rate,[6]; 500 ppm,100%
CN(C(=O)N(C(=O)c1c(F)cccc1F)N(C)C)c1ccc(SC(F)(F)F)cc1F [(115)],pest or weed control at 500 ppm,[3],100%
same,pest or weed control at 500 ppm,[6],100%
"O=C(NC(=O)c1c(F)cccc1F)Nc1ccc(SC(F)(F)C(F)F)cc1 [comparative compound D, reference compound]",dead pest rate,[7],20%
CN(C(=O)NC(=O)c1c(F)cccc1F)c1cc(F)c(SC(F)(F)F)cc1F [(100)],pest or weed control at 200 ppm,[4],100%
CN(C(=O)NC(=O)c1c(F)cccc1F)c1ccc(SC(F)(F)F)cc1F [(1)],pest or weed control at 25 ppm,[1],100%
same,pest or weed control at 50 ppm,[2],100%
same,pest or weed control at 500 ppm,[3],100%
